Data published in ChEMBL document CHEMBL4270599, “Synthesis of a 3'-C-ethynyl-β-d-ribofuranose purine nucleoside library: Discovery of C7-deazapurine analogs as potent antiproliferative nucleosides” (Eur J Med Chem, 2018).

Assays:
SNB-75 = assay: Cytotoxicity against human SNB75 cells after 48 hrs by SRB assay; format: functional; settings: SNB-75, 48 h; for GI50: read-out: GI50; for CC50: read-out: LC50 (the source's name); for TGI: read-out: TGI
MDA-MB-468 = assay: Growth inhibition of human MDA-MB-468 cells assessed as cell growth at 10^-7 M incubated for 48 hrs by sulforhodamine B assay relative to control; format: functional; settings: MDA-MB-468, 48 h, read-out: Activity
OVCAR-4 [1] = assay: Growth inhibition of human OVCAR4 cells assessed as cell growth at 10^-8 M incubated for 48 hrs by sulforhodamine B assay relative to control; format: functional; settings: OVCAR-4, 48 h, read-out: Activity
A498 [2] = assay: Growth inhibition of human A498 cells assessed as cell growth at 10^-8 M incubated for 48 hrs by sulforhodamine B assay relative to control; format: functional; settings: A498, 48 h, read-out: Activity
NCI-H322M = assay: Growth inhibition of human NCI-H322M cells assessed as cell growth at 10^-8 M incubated for 48 hrs by sulforhodamine B assay relative to control; format: functional; settings: read-out: Activity
HCT-116 [3] = assay: Growth inhibition of human HCT116 cells assessed as cell growth at 10^-4 M incubated for 48 hrs by sulforhodamine B assay relative to control; format: functional; settings: HCT-116, 48 h, read-out: Activity
NCI-H522 [4] = assay: Growth inhibition of human NCI-H522 cells assessed as cell growth at 10^-7 M incubated for 48 hrs by sulforhodamine B assay relative to control; format: functional; settings: NCI-H522, 48 h, read-out: Activity
SF-268 = assay: Growth inhibition of human SF268 cells assessed as cell growth at 10^-7 M incubated for 48 hrs by sulforhodamine B assay relative to control; format: functional; settings: SF-268, 48 h, read-out: Activity
NCI/ADR-RES = assay: Cytotoxicity against human NCI-ADR-RES cells after 48 hrs by SRB assay; format: functional; settings: for GI50: read-out: GI50; for CC50: read-out: pLC50 (the source's name) (converted)
NCI-H522 [5] = assay: Cytotoxicity against human NCI-H522 cells after 48 hrs by SRB assay; format: functional; settings: NCI-H522, 48 h; for GI50: read-out: GI50; for TGI: read-out: TGI; for CC50: read-out: pLC50 (the source's name) (converted)
Malme-3M [6] = assay: Cytotoxicity against human MALME-3M cells after 48 hrs by SRB assay; format: functional; settings: for GI50: read-out: GI50; for CC50: read-out: LC50 (the source's name); for TGI: read-out: TGI
SK-MEL-2 = assay: Cytotoxicity against human SK-MEL-2 cells after 48 hrs by SRB assay; format: functional; settings: SK-MEL-2, 48 h; for GI50: read-out: GI50; for CC50: read-out: LC50 (the source's name); for TGI: read-out: TGI
CCRF-CEM [7] = assay: Growth inhibition of human CCRF-CEM cells assessed as cell growth at 10^-4 M incubated for 48 hrs by sulforhodamine B assay relative to control; format: functional; settings: read-out: Activity
CCRF-CEM [8] = assay: Growth inhibition of human CCRF-CEM cells assessed as cell growth at 10^-6 M incubated for 48 hrs by sulforhodamine B assay relative to control; format: functional; settings: read-out: Activity
BT-549 [9] = assay: Growth inhibition of human BT549 cells assessed as cell growth at 10^-7 M incubated for 48 hrs by sulforhodamine B assay relative to control; format: functional; settings: BT-549, 48 h, read-out: Activity
CCRF-CEM [10] = assay: Growth inhibition of human CCRF-CEM cells assessed as cell growth at 10^-5 M incubated for 48 hrs by sulforhodamine B assay relative to control; format: functional; settings: read-out: Activity
[11] = Antiproliferative activity against HELF cells after 4 days by Coulter counter method; format: cell-based; settings: Homo sapiens, 96 h
SR [12] = assay: Cytotoxicity against human SR cells after 48 hrs by SRB assay; format: functional; settings: for GI50: read-out: GI50; for CC50: read-out: pLC50 (the source's name) (converted)
SR [13] = assay: Growth inhibition of human SR cells assessed as cell growth at 10^-8 M incubated for 48 hrs by sulforhodamine B assay relative to control; format: functional; settings: read-out: Activity
OVCAR-8 = assay: Growth inhibition of human OVCAR8 cells assessed as cell growth at 10^-8 M incubated for 48 hrs by sulforhodamine B assay relative to control; format: functional; settings: OVCAR-8, 48 h, read-out: Activity
DU-145 = assay: Growth inhibition of human DU145 cells assessed as cell growth at 10^-5 M incubated for 48 hrs by sulforhodamine B assay relative to control; format: functional; settings: DU-145, 48 h, read-out: Activity
UO-31 = assay: Growth inhibition of human UO31 cells assessed as cell growth at 10^-8 M incubated for 48 hrs by sulforhodamine B assay relative to control; format: functional; settings: UO-31, 48 h, read-out: Activity
A498 [14] = assay: Growth inhibition of human A498 cells assessed as cell growth at 10^-7 M incubated for 48 hrs by sulforhodamine B assay relative to control; format: functional; settings: A498, 48 h, read-out: Activity
IGROV-1 [15] = assay: Growth inhibition of human IGROV1 cells assessed as cell growth at 10^-8 M incubated for 48 hrs by sulforhodamine B assay relative to control; format: functional; settings: IGROV-1, 48 h, read-out: Activity
PC-3 = assay: Growth inhibition of human PC3 cells assessed as cell growth at 10^-7 M incubated for 48 hrs by sulforhodamine B assay relative to control; format: functional; settings: PC-3, 48 h, read-out: Activity
IGROV-1 [16] = assay: Growth inhibition of human IGROV1 cells assessed as cell growth at 10^-4 M incubated for 48 hrs by sulforhodamine B assay relative to control; format: functional; settings: IGROV-1, 48 h, read-out: Activity
BT-549 [17] = assay: Growth inhibition of human BT549 cells assessed as cell growth at 10^-5 M incubated for 48 hrs by sulforhodamine B assay relative to control; format: functional; settings: BT-549, 48 h, read-out: Activity
HCT-116 [18] = assay: Growth inhibition of human HCT116 cells assessed as cell growth at 10^-6 M incubated for 48 hrs by sulforhodamine B assay relative to control; format: functional; settings: HCT-116, 48 h, read-out: Activity
Malme-3M [19] = assay: Growth inhibition of human MALME-3M cells assessed as cell growth at 10^-6 M incubated for 48 hrs by sulforhodamine B assay relative to control; format: functional; settings: read-out: Activity
OVCAR-4 [20] = assay: Growth inhibition of human OVCAR4 cells assessed as cell growth at 10^-5 M incubated for 48 hrs by sulforhodamine B assay relative to control; format: functional; settings: OVCAR-4, 48 h, read-out: Activity

C#C[C@@]1(O)[C@@H](CO)O[C@@H](n2cc(Cl)c3c(N)ncnc32)[C@@H]1O
GI50 (SNB-75): 258 to 310 nM | CC50 (SNB-75): 1800 to 3210 nM | TGI (SNB-75): 574 to 888 nM | growth at 0.1 µM (MDA-MB-468): 82 to 89% | growth at 0.01 µM (OVCAR-4 [1]): 89 to 90% | growth at 0.01 µM (A498 [2]): 103 to 107% | growth at 0.01 µM (NCI-H322M): 93 to 100% | growth at 100 µM (HCT-116 [3]): 3 to 4% | growth at 0.1 µM (NCI-H522 [4]): 47 to 62% | growth at 0.1 µM (SF-268): 77 to 80% | GI50 (NCI/ADR-RES): 50.6 to 54.6 nM | TGI (NCI/ADR-RES; read-out: TGI): 777 nM | CC50 (NCI/ADR-RES): > 100000 nM | TGI (NCI/ADR-RES; read-out: pTGI (converted)): 776 nM | GI50 (NCI-H522 [5]): 81.6 to 134 nM | TGI (NCI-H522 [5]): 276 to 455 nM | CC50 (NCI-H522 [5]): > 100000 nM | GI50 (Malme-3M [6]): 223 to 262 nM | CC50 (Malme-3M [6]): > 100000 nM | TGI (Malme-3M [6]): 858 to 11800 nM | GI50 (SK-MEL-2): 83.5 to 146 nM | CC50 (SK-MEL-2): > 100000 nM | TGI (SK-MEL-2): 268 to 481 nM | growth at 100 µM (CCRF-CEM [7]): 2 to 5% | growth at 1 µM (CCRF-CEM [8]): 7% | growth at 0.1 µM (BT-549 [9]): 86 to 90% | growth at 10 µM (CCRF-CEM [10]): 2 to 4% | IC50 [11]: 9.2 nM | GI50 (SR [12]): 61.1 to 87.3 nM | TGI (SR [12]; read-out: TGI): > 100000 nM | CC50 (SR [12]): > 100000 nM | TGI (SR [12]; read-out: pTGI): > 100000 nM | growth at 0.01 µM (SR [13]): 107 to 108% | growth at 0.01 µM (OVCAR-8): 50 to 62% | growth at 10 µM (DU-145): 1 to 2% | growth at 0.01 µM (UO-31): 67 to 82% | growth at 0.1 µM (A498 [14]): 105 to 111% | growth at 0.01 µM (IGROV-1 [15]): 91 to 94% | growth at 0.1 µM (PC-3): 62 to 70%

C#C[C@@]1(O)[C@@H](CO)O[C@@H](n2cc(Br)c3c(N)ncnc32)[C@@H]1O
GI50 (SNB-75): 221 to 249 nM | CC50 (SNB-75): 1640 to 3670 nM | TGI (SNB-75): 519 to 1070 nM | growth at 0.1 µM (MDA-MB-468): 56 to 87% | growth at 0.01 µM (OVCAR-4 [1]): 96 to 100% | growth at 0.01 µM (A498 [2]): 95 to 97% | growth at 0.01 µM (NCI-H322M): 91 to 95% | growth at 100 µM (HCT-116 [3]): 3 to 5% | growth at 0.1 µM (NCI-H522 [4]): 38 to 67% | growth at 0.1 µM (SF-268): 78 to 87% | growth at 100 µM (IGROV-1 [16]): -2% | GI50 (NCI/ADR-RES): 45.1 to 65.9 nM | TGI (NCI/ADR-RES; read-out: TGI): 1020 nM | CC50 (NCI/ADR-RES): > 100000 nM | TGI (NCI/ADR-RES; read-out: pTGI (converted)): 1020 nM | GI50 (NCI-H522 [5]): 61.3 to 156 nM | TGI (NCI-H522 [5]): 332 to 593 nM | CC50 (NCI-H522 [5]): > 100000 nM | GI50 (Malme-3M [6]): 627 to 799 nM | CC50 (Malme-3M [6]): 81900 to 82600 nM | TGI (Malme-3M [6]): 12200 to 14100 nM | GI50 (SK-MEL-2): 197 to 916 nM | CC50 (SK-MEL-2): 49500 to 100000 nM | TGI (SK-MEL-2): 430 to 758 nM | growth at 10 µM (BT-549 [17]): -44% | growth at 100 µM (CCRF-CEM [7]): 3 to 4% | growth at 1 µM (CCRF-CEM [8]): 5 to 11% | growth at 1 µM (HCT-116 [18]): 2 to 3% | growth at 0.1 µM (BT-549 [9]): 65 to 84% | growth at 10 µM (CCRF-CEM [10]): 3 to 5% | IC50 [11]: 17 nM | growth at 1 µM (Malme-3M [19]): 43 to 47% | GI50 (SR [12]): 43.8 to 84.5 nM | TGI (SR [12]; read-out: TGI): > 100000 nM | CC50 (SR [12]): > 100000 nM | TGI (SR [12]; read-out: pTGI): > 100000 nM | growth at 0.01 µM (SR [13]): 101 to 104% | growth at 0.01 µM (OVCAR-8): 53 to 76% | growth at 10 µM (DU-145): 7 to 10% | growth at 0.01 µM (UO-31): 70 to 84% | growth at 0.1 µM (A498 [14]): 88 to 98% | growth at 0.01 µM (IGROV-1 [15]): 81 to 88% | growth at 10 µM (OVCAR-4 [20]): 7% | growth at 0.1 µM (PC-3): 33 to 61%
